According to patent US20050112573A1, “Method of detecting toxic substance” (priority 2001, published 2005):

Test system: yeast genes (level of expressed mRNA)
Test: DNA chip analysis of expressed mRNA of yeast genes after 2 h culture with a toxic chemical substance
Format: cell-based, Saccharomyces cerevisiae S288C
Conditions: for The level of expressed mRNA in the presence of chemical substance/ (ratio to absence of chemical substance): stress protein genes, DNA chip
Description: Yeast (Saccharomyces cerevtisiae S288C (α SUC2mal mel gap2 CUP1)) were cultured at 25° C. on YPD medium (yeast extract 1%, polypepton 2%, glucose 2%). One of toxic chemical substances was added to the cell at logarithmic growth phase, and the cell was further cultured for two hours. Cell was cultured without any chemical substance in the same condition, and was used as control. Concentrations of the chemical substances were defined to inhibit the growth of the yeast but not lead to death.
After the completion of cultivation, the culture was centrifuged to collect the cells. To the cells, sodium acetate buffer (50 mM sodium acetate, 10 mM EDTA, 1% SDS) was added, and the mixture was shaken at 65° C. for five minutes, followed by returning to room temperature, and obtaining the supernatant, which procedure was repeated two times. To the supernatant, ½ amount of a solution of phenol/chloroform was added, and the mixture was centrifuged to give a supernatant, which was added with an equal amount of chloroform, and the mixture was centrifuged to give a supernatant. To the supernatant, an equal amount of isopropanol containing 0.3 M sodium acetate was added, and the mixture was allowed to stand at room temperature for 30 minutes, after which the mixture was centrifuged to give a sediment of the whole RNAs. Seventy % ethanol was added to the sediment, and the mixture was again centrifuged to give a sediment, which was then dried and dissolved in water. mRNA was isolated from the whole RNAs as followings. In view of the fact that a poly A chain is attached to the 3′ terminus of mRNA, a polynucleotide having a poly T structure which was immobilized on the surface of latex beads was used to trap the mRNA, and then the mRNA was washed and eluted with spine column (Oligotex-dT30<Super>mRNA Purification Kit, Takara). Reverse transcription of the mRNA was conducted with a reverse transcriptase (Super Script II Reverse Transcriptase; catalogue No. 18064-014, GibcoBRL) using fluorescence-labeled nucleotides to give cDNAs that were introduced with Cy3-dUTP or Cy5-dUTP during the reverse transcription.
The labeled cDNAs were dissolved in TE buffer (10 mM Tris-HCl/1 mM EDTA, pH8.0), and the solution was dropped on the DNA chip containing the whole genes of yeast (DNA Chip Research Inc. Japan) so that the cDNAs were hybridized on the DNA chip at 65° C. for over 12 hours. The fluoresces intensity of the DNA chip was read with a scanner, and the ratio relative to the fluorescence intensity resulting from the absence of chemical substance was estimated as the following, which is shown in Tables 1 to 9: [formula]
In the Tables, “Intensity” indicated in the rightmost column is a value of the level of expressed mRNA of each gene in control cells as divided by the average level of the expressions of the whole genes.

C=CC=O [(14), acrolein]
The level of expressed mRNA in the presence of chemical substance/ in its absence, gene YDL078C (yeast gene YDL078C, ratio of DNA chip fluorescence intensity to that without chemical substance): 0.8
The level of expressed mRNA in the presence of chemical substance/ (in its absence), gene YDL215C (yeast gene YDL215C, ratio of DNA chip fluorescence intensity to that without chemical substance): 1.0
The level of expressed mRNA in the presence of chemical substance/The level of expressed mRNA in the absence of chemical substance (yeast gene YDL238C): 1.2
The level of expressed mRNA in the presence of chemical substance/The level of expressed mRNA in the absence of chemical substance (yeast gene YDR055W): 0.9
The level of expressed mRNA in the presence of chemical substance/ (in its absence), gene YDR073W (yeast gene YDR073W, ratio of DNA chip fluorescence intensity to that without chemical substance): 1.2
The level of expressed mRNA in the presence of chemical substance/ in its absence, gene YDR079W (yeast gene YDR079W, energy system protein genes, 2 h culture with the chemical, ratio to control without chemical): 1.5
The level of expressed mRNA in the presence of chemical substance/ (ratio to absence), gene YDR079W (yeast gene YDR079W, mitochondria-located protein genes, 2 h culture with chemical): 1.5
The level of expressed mRNA in the presence of chemical substance/The level of expressed mRNA in the absence of chemical substance (yeast gene YDR084C): 1.0
The level of expressed mRNA in the presence of chemical substance/The level of expressed mRNA in the absence of chemical substance (yeast gene YDR085C): 1.6
The level of expressed mRNA in the presence of chemical substance/The level of expressed mRNA in the absence of chemical substance (yeast gene YDR104C): 1.4
The level of expressed mRNA in the presence of chemical substance/The level of expressed mRNA in the absence of chemical substance (yeast gene YDR115W): 1.5
The level of expressed mRNA in the presence of chemical substance/The level of expressed mRNA in the absence of chemical substance (yeast gene YDR259C): 1.5
The level of expressed mRNA in the presence of chemical substance/ (in its absence), gene YDR297W (yeast gene YDR297W, ratio of DNA chip fluorescence intensity to that without chemical substance): 0.9
The level of expressed mRNA in the presence of chemical substance/The level of expressed mRNA in the absence of chemical substance (yeast gene YDR315C): 1.4
The level of expressed mRNA in the presence of chemical substance/The level of expressed mRNA in the absence of chemical substance (yeast gene YDR358W): 1.2
The level of expressed mRNA in the presence of chemical substance/ (ratio to absence), gene YDR377W (yeast gene YDR377W, mitochondria-located protein genes, 2 h culture with chemical): 1.4
The level of expressed mRNA in the presence of chemical substance/ (in its absence), gene YDR387C (yeast gene YDR387C, ratio of DNA chip fluorescence intensity to that without chemical substance): 0.9
The level of expressed mRNA in the presence of chemical substance/The level of expressed mRNA in the absence of chemical substance (yeast gene YDR388W): 0.6
The level of expressed mRNA in the presence of chemical substance/The level of expressed mRNA in the absence of chemical substance (yeast gene YDR432W): 0.5
The level of expressed mRNA in the presence of chemical substance/The level of expressed mRNA in the absence of chemical substance (yeast gene YDR481C): 0.9
The level of expressed mRNA in the presence of chemical substance/The level of expressed mRNA in the absence of chemical substance (yeast gene YDR510W): 1.9
The level of expressed mRNA in the presence of chemical substance/ (ratio to absence of chemical substance) (yeast gene YEL039C): 1.4
The level of expressed mRNA in the presence of chemical substance/The level of expressed mRNA in the absence of chemical substance (yeast gene YEL042W): 0.6
The level of expressed mRNA in the presence of chemical substance/The level of expressed mRNA in the absence of chemical substance (yeast gene YEL066W): 1.9
The level of expressed mRNA in the presence of chemical substance/ (in its absence), gene YER015W (yeast gene YER015W, ratio of DNA chip fluorescence intensity to that without chemical substance): 1.1
The level of expressed mRNA in the presence of chemical substance/The level of expressed mRNA in the absence of chemical substance (yeast gene YER039C): 1.2
The level of expressed mRNA in the presence of chemical substance/ (ratio to absence of chemical substance) (yeast gene YER057C): 1.4
The level of expressed mRNA in the presence of chemical substance/The level of expressed mRNA in the absence of chemical substance (yeast gene YER107C): 1.1
The level of expressed mRNA in the presence of chemical substance/The level of expressed mRNA in the absence of chemical substance (yeast gene YER130C): 0.8
The level of expressed mRNA in the presence of chemical substance/The level of expressed mRNA in the absence of chemical substance (yeast gene YFL028C): 1.6
The level of expressed mRNA in the presence of chemical substance/The level of expressed mRNA in the absence of chemical substance (yeast gene YFL043C): 1.5
The level of expressed mRNA in the presence of chemical substance/ (in its absence), gene YGL035C (yeast gene YGL035C, ratio of DNA chip fluorescence intensity to that without chemical substance): 1.1
The level of expressed mRNA in the presence of chemical substance/ (in its absence), gene YGL115W (yeast gene YGL115W, ratio of DNA chip fluorescence intensity to that without chemical substance): 1.2
The level of expressed mRNA in the presence of chemical substance/ (ratio to absence of chemical substance) (yeast gene YGL115W): 1.2
The level of expressed mRNA in the presence of chemical substance/The level of expressed mRNA in the absence of chemical substance (yeast gene YGL158W): 2.3
The level of expressed mRNA in the presence of chemical substance/ (ratio to absence), gene YGL187C (yeast gene YGL187C, mitochondria-located protein genes, 2 h culture with chemical): 0.9
The level of expressed mRNA in the presence of chemical substance/ (in its absence), gene YGL205W (yeast gene YGL205W, ratio of DNA chip fluorescence intensity to that without chemical substance): 1.0
The level of expressed mRNA in the presence of chemical substance/The level of expressed mRNA in the absence of chemical substance (yeast gene YGL229C): 1.0
The level of expressed mRNA in the presence of chemical substance/ in its absence, gene YGR062C (yeast gene YGR062C, energy system protein genes, 2 h culture with the chemical, ratio to control without chemical): 1.2
The level of expressed mRNA in the presence of chemical substance/ (ratio to absence), gene YGR062C (yeast gene YGR062C, mitochondria-located protein genes, 2 h culture with chemical): 1.2
The level of expressed mRNA in the presence of chemical substance/ (in its absence), gene YGR096W (yeast gene YGR096W, ratio of DNA chip fluorescence intensity to that without chemical substance): 1.2
The level of expressed mRNA in the presence of chemical substance/The level of expressed mRNA in the absence of chemical substance (yeast gene YGR136W): 1.1
The level of expressed mRNA in the presence of chemical substance/The level of expressed mRNA in the absence of chemical substance (yeast gene YGR189C): 0.9
The level of expressed mRNA in the presence of chemical substance/The level of expressed mRNA in the absence of chemical substance (yeast gene YGR213C): 1.0
The level of expressed mRNA in the presence of chemical substance/The level of expressed mRNA in the absence of chemical substance (yeast gene YGR257C): 0.9
The level of expressed mRNA in the presence of chemical substance/ (in its absence), gene YGR287C (yeast gene YGR287C, ratio of DNA chip fluorescence intensity to that without chemical substance): 1.1
The level of expressed mRNA in the presence of chemical substance/ (in its absence), gene YGR288W (yeast gene YGR288W, ratio of DNA chip fluorescence intensity to that without chemical substance): 1.1
The level of expressed mRNA in the presence of chemical substance/ (ratio to absence of chemical substance) (yeast gene YHL028W): 1.3
The level of expressed mRNA in the presence of chemical substance/ (ratio to absence of chemical substance) (yeast gene YHL046C): 1.4
The level of expressed mRNA in the presence of chemical substance/The level of expressed mRNA in the absence of chemical substance (yeast gene YHR004C): 0.8
The level of expressed mRNA in the presence of chemical substance/The level of expressed mRNA in the absence of chemical substance (yeast gene YHR071W): 1.6
The level of expressed mRNA in the presence of chemical substance/The level of expressed mRNA in the absence of chemical substance (yeast gene YHR139C): 2.5
The level of expressed mRNA in the presence of chemical substance/The level of expressed mRNA in the absence of chemical substance (yeast gene YHR142W): 1.2
The level of expressed mRNA in the presence of chemical substance/ (in its absence), gene YHR210C (yeast gene YHR210C, ratio of DNA chip fluorescence intensity to that without chemical substance): 1.0
The level of expressed mRNA in the presence of chemical substance/ (in its absence), gene YIL006W (yeast gene YIL006W, ratio of DNA chip fluorescence intensity to that without chemical substance): 1.0
The level of expressed mRNA in the presence of chemical substance/ (ratio to absence of chemical substance) (yeast gene YIL011W): 0.5
The level of expressed mRNA in the presence of chemical substance/The level of expressed mRNA in the absence of chemical substance (yeast gene YIL123W): 0.3
